We go through three molecules from patent publication US20080140450A1, “Treatment of metabolic syndrome with norfluoxetine” (AMPLA Pharmaceuticals Inc., priority 2006, published 2008).

Test [1] concerns the target CB1 receptor (Homo sapiens, UniProt P21554). The experiment in a line: functional activity versus the CB1 receptor. The settings on record: qualitative statement, no method or numbers given. The text has this: Without wishing to be restricted by the proposal, this cannabinoid activity may mediate the utility of these compounds for the treatment of metabolic syndrome or the disorders associated with metabolic syndrome.

Test [2] concerns monoamine uptake, especially serotonin. The settings on record: qualitative, known from U.S. Pat. No. 4,313,896; cited from earlier work.

CB1 receptor, sequence (P21554 whole entry): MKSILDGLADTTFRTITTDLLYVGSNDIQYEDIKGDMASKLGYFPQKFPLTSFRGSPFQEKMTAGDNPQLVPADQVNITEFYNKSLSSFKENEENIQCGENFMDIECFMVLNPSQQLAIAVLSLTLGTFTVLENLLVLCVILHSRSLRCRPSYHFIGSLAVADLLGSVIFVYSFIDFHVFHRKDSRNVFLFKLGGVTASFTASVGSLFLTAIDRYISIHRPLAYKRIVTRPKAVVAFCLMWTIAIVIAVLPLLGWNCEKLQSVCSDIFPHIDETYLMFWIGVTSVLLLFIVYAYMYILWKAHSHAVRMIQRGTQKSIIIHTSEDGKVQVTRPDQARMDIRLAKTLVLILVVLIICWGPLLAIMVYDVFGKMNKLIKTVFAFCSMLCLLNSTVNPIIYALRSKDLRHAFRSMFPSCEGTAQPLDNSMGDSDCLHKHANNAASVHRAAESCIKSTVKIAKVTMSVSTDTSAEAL

Turning to `NCCC(Oc1ccc(C(F)(F)F)cc1)c1ccccc1` (racemic) [Norfluoxetine, 3-(4-trifluoromethylphenoxy)-3-phenylpropylamine], the “functional activity versus the CB1 receptor (mode of action)” value in test [1] is “antagonist of CB1”. For the same molecule, the “block of monoamine uptake” value in test [2] was “block monoamine uptake, especially serotonin”.

For `CNCC[C@@H](Oc1ccc(C(F)(F)F)cc1)c1ccccc1` [(R)-fluoxetine], the “functional activity versus the CB1 receptor (mode of action)” value in test [1] was “antagonist of CB1”.

For the molecule `CNCC[C@H](Oc1ccc(C(F)(F)F)cc1)c1ccccc1` [(S)-Fluoxetine], the “functional activity versus the CB1 receptor (mode of action)” value in test [1] is “inverse agonist of CB1”.
